The values below come from patent US20230183751A1, “HDR ENHANCERS” (OXFORD GENETICS LIMITED, priority 2020, published 2023).

The subject of series [1] is HEK reporter cell line. Briefly: cell-viability assay with alamar blue reagent. It counts as cell-based, human. To be noted: 72 hours. How it is done:
To investigate the effect of this library on HDR efficiency and to identify novel molecules which would increase the HDR mediated gene editing efficiency, first we carried out a cell-viability assay using the HEK reporter cell line and alamar blue reagent. The experiment was performed to rule out any toxicity associated with the small molecule library. Briefly, 3 different concentration of inhibitors (0.1 μM, 1 μM and 10 μM) were added in the cells in a 96 well plate format and plates were incubated for 72 hours. After 72 hours, the media were replaced with alamar blue containing media and the plates were further incubated for 3 hours and then read on a Fluorstar omega plate reader. The table gives the results obtained with the subsequently-selected inhibitors, together with a range of other potential inhibitors.
In general terms: Alamar Blue is a resazurin reagent that responds to reducing activity.

In series [2] the test system is HDR in HEK293 reporter cell line (truncated EGFP). Briefly: HDR assay with paired nickases Cas9n D10A RNP and ssOligo donor, EGFP-positive cells by FACS. It counts as cell-based, human. To be noted: FIG. 3; for dose-dependency of HDR efficiency: three concentrations (low, medium, high); for concentration with highest HDR efficiency: three concentrations tested. How it is done: More specifically, an HDR assay using a HEK reporter cell line containing truncated EGFP may be used. These cells may be transfected with a transfection complex containing the CRISPR endonuclease and a donor sequence. Cas9 RNPs may be prepared by following the manufacturers' guidelines. The transfection complex may be prepared by adding Cas9 RNP or Cas9 nickase RNP, along with ssOligo donor and lipofectamine 2000 in Optimem. Reagents should be mixed well and incubated for 20 mins. After 20 mins, 50 μlof transfection complex (at an optimal concentration—see the Examples herein) may be transferred in a 96 well plate and 50 μlHEK293 reporter cell line suspension (9×10^5 cells/ml) added followed by 50 μl of cell culture medium containing appropriate concentration(s) of inhibitor(s). Cells may be incubated at 37° C. in a CO2 incubator for 24 hours and then inhibitor-containing media should be replaced with fresh media without inhibitor. Cells are then further incubated for 48 hours. After 48 hours, cells may be trypsinized and resuspended in PBS containing 10% FBS. Samples may be run on FACS and the percentage of EGFP in the population measured. Presence of EGFP directly correlates with HDR efficiency. […]
To understand if inhibitors have any influence on HDR mediated by paired nickases, we carried out an HDR assay in the presence of the small molecule inhibitor library. Briefly, in vitro reconstituted Cas9n D10A RNP with gRNA-X1 and gRNA-X2 was transfected into the reporter cell line along with ssOligo donor in the presence of different small molecule inhibitors. Inhibitor-containing media was replaced with fresh media after 24 hours and the cells were then further incubated for 48 hours. After 48 hours, the cells were trypsinized and resuspended in 10% FBS containing PBS and analysed by FACS. EGFP-positive cells were monitored; these represented successful HDR events. […]
(A flow cytometer gives signals particle by particle.)

Turning to `Cl.O=C([C@@H](Cc1cccc(C(F)(F)F)c1)NS(=O)(=O)c1cc(F)c2c(c1)CCNC2)N1CCCC1` [(R)-PFI2 hydrochloride], the “% survival” value in series [1] (0.1 μM inhibitor) turned out to be 102.58 ± 0.88%; in series [1] (1 μM inhibitor), 101.51 ± 4.1%; in series [1] (10 μM inhibitor), 96.42 ± 0.64%. Also, the “dose-dependency of HDR efficiency” value in series [2] is reported as “dose-dependent increases in HDR efficiency”. Further, the “concentration with highest HDR efficiency” value (“concentration” for short) in series [2] was 20 µM.
The like results for `Clc1cc2c(NC3CCCC3)nnc(-c3ccncc3)c2cc1Cl` [A196] were, in that order, 105.84 ± 0.05%, 107.75 ± 6.83%, 107.43 ± 0.21%, “dose-dependent increases in HDR efficiency” and 20 µM.
Take `CN(C)[C@H]1CN(C2CCc3cccc(F)c32)C[C@@H]1c1ccc(N2CCN(S(C)(=O)=O)CC2)cc1` (some centres unmarked) [A395]: the “% survival” value stood at 100.35 ± 1.4% in series [1] (0.1 μM inhibitor), 103.27 ± 0.32% in series [1] (1 μM inhibitor) and 87.94 ± 9.49% in series [1] (10 μM inhibitor). In addition, in series [2], the “dose-dependency of HDR efficiency” value was “did not show any significant dose-dependency”.
For the compound `O=C(Nc1c[nH]nc1-c1nc2cc(CN3CCOCC3)ccc2[nH]1)NC1CC1` [AT9283], in series [2], the “dose-dependency of HDR efficiency” value is recorded as “moderate decreases in HDR efficiency upon increasing the inhibitor concentration” and the “concentration” value was 0.05 µM.
Consider `CCN(C(=O)CO)[C@H]1CN(/C(=N\C#N)Nc2cccc(OC(F)F)c2)N=C1c1ccc(Cl)c(Cl)c1` [BAY598], for which the “% survival” value in series [1] (0.1 μM inhibitor) is listed as 102.45 ± 0.9%; in series [1] (1 μM inhibitor) it was 102.92 ± 0.42%; in series [1] (10 μM inhibitor), 101.44 ± 8.52%. For the same compound, the “dose-dependency of HDR efficiency” value in series [2] was “dose-dependent increases in HDR efficiency”. In addition, the “concentration” value in series [2] turned out to be 20 µM.
Regarding `COc1ccc(CCC(=O)Nc2nc3ccc(Cl)cc3s2)cc1OC` [KY02111], the “% survival” value in series [1] (0.1 μM inhibitor) worked out at 100.52 ± 2.05%; in series [1] (1 μM inhibitor), 100.86 ± 1.83%; in series [1] (10 μM inhibitor) it was 95.18 ± 2.27%. For the same compound, the “dose-dependency of HDR efficiency” value in series [2] is “did not show any significant dose-dependency”.
On to `O=c1cc(N2CCOCC2)oc2c1ccc1ccccc12` [NU7026], for which the “% survival” value in series [1] (0.1 μM inhibitor) came to 100.08 ± 4.01%; in series [1] (1 μM inhibitor), 100.14 ± 4.13%; in series [1] (10 μM inhibitor) it was 83.17 ± 1.44%.
Turning to `O=c1cc(N2CCOCC2)oc2c(-c3cccc4c3sc3ccccc34)cccc12` [NU7441], the “% survival” value in series [1] (0.1 μM inhibitor) came to 103.58 ± 4.44%; in series [1] (1 μM inhibitor) it was 88.88 ± 3.55%; in series [1] (10 μM inhibitor), 22.95 ± 0.98%. Besides, in series [2], the “dose-dependency of HDR efficiency” value is recorded as “dose-dependent increases in HDR efficiency”. For the same compound, the “concentration” value in series [2] is 2 µM.
The like results for `CCCCc1nc2cc(/C=C/C(=O)NO)ccc2n1CCN(CC)CC` [SB939] were, in that order, 80.99 ± 1.01%, 15.56 ± 2.26%, 2.25 ± 0.31%, “moderate decreases in HDR efficiency upon increasing the inhibitor concentration” and 0.05 µM.
